Experimental data: patent US10834951B2, “Organic compounds” (GIVAUDAN SA, priority 2013, dated 2020)

Assays:
[1] = Tasting in fried potato snack product with cheese seasoning (35% fat)
Procedure: A snack product consisting of a fried potato base, containing 35% fat and flavored with cheese seasoning containing salt, MSG, dairy, organic acids, sugars, and a flavour formulation. A compound of formula (I) was added to the snack product at the indicated levels and the tasting results are reported as follows (compared with a snack product without a compound of formula (I)): […]

[2] = Tasting in chicken bouillon base (0.7% salt, 0.5% fat)
Procedure: A compound of formula (I) in a concentration as indicated below was added to a chicken bouillon base (0.7% salt, 0.5% fat). The resultant composition was compared with a chicken bouillon without a compound of formula (I).

[3] = Expert tasting in mango flavoured still beverage
Procedure: In a Mango flavoured still beverage, sweetened with 8% sucrose & containing 0.1% citric acid and 1% clear mango juice flavoured with proprietary Mango flavour @ 0.05%, C16:0 pyro-Glu and C18:2-Theanine were added, as such (separate) and in combination.
All samples were evaluated by expert tasters. Tasters were asked to describe the samples focusing on authentic taste, juicy mouthfeel, enhancement, richness, juiciness, long lastingness, salivation, sweetness.
*Base: water, 8% sucrose, 0.1% citric acid, 1% clear mango juice (i.e. very low juice concentration), flavoured with Mango flavor (dosed at 0.05%).

[4] = Tasting by a professional panel in diluted low salt soy sauce
Procedure: Kikkoman low salt soy sauce was diluted 100 times. Part of the solution was kept as the reference. To another part was dosed a compound of formula (I). The solutions were tasted by a professional panel.
5.a: 0.1 ppm of 5-oxo-1-stearoylpyrrolidine-2-carboxylic acid (C18:0 pyro-Glu) was added to tap water containing 1% salt reduced kikoman soy sauce (9% salt).
5.b: 0.5 ppm of 5-oxo-1-palmitoylpyrrolidine-2-carboxylic acid (C16:0 pyro-Glu) was added to salt reduced kikoman soy sauce (9% salt).

[5] = Expert tasting in orange flavoured Tang powdered soft drink
Procedure: In an orange flavoured Tang powdered soft drink (market product) sweetened with sucrose plus high intensity sweetener and containing citric acid, C18:0 pyro-Glu, and C18:2-Theanine were tested.
All samples were evaluated by expert tasters. Tasters were asked to describe the samples focusing on authentic taste, mouthfeel & body, enhancement, richness, juiciness, long lastingness, salivation, sweetness, masking off notes of high intensity sweetener.

[6] = Tasting in brewed green tea against reference
Procedure: A green tea was brewed by taking 0.6 g of tea/100 ml of water. The water was heated to 80° C. and the tea leaves were left in the solution for 5 minutes. The tea solution was allowed to cool down to room temperature. Part of the solution was kept as a reference. To another part was added a compound of formula (I) in a concentration as indicated below. The solutions were tasted against the reference (i.e. a green tea without a compound of formula (I)).

[7] = 0.5 ppm in chicken bouillon base

SMILES | taste description versus snack product without compound ([1]; 0.5 ppm in cheese flavoured fried potato snack) | taste description versus chicken bouillon without compound [2, 7] | taste description by expert tasters ([3]; 0.1 ppm in mango still beverage base) | taste description versus reference ([4]; 0.5 ppm in salt reduced kikoman soy sauce (9% salt)) | taste description versus snack product without compound ([1]; 1 ppm in cheese flavoured fried potato snack) | taste description versus chicken bouillon without compound ([2]; 0.2 ppm in chicken bouillon base) | taste description by expert tasters ([5]; 0.1 ppm in orange flavoured Tang base) | taste description versus reference without the compound ([4]; 0.1 ppm in tap water containing 1% salt reduced kikoman soy sauce (9% salt)) | taste description versus green tea reference ([6]; 0.2 ppm in green tea) | taste description versus snack product without compound ([1]; 0.1 ppm in cheese flavoured fried potato snack) | taste description by expert tasters ([3]; 1 ppm in mango still beverage base) | taste description by expert tasters ([5]; 1 ppm in orange flavoured Tang base) | taste description versus green tea reference ([6]; 0.02 ppm in green tea) | taste description versus green tea reference ([6]; 1 ppb in green tea) | taste description versus green tea reference ([6]; 10 ppb in green tea)
CCCCCCCCCCCCCCCC(=O)N1C(=O)CCC1C(=O)O (stereo not shown) [C16:0 pyro-Glu, 5-oxo-1-palmitoylpyrrolidine-2-carboxylic acid] | more rich, more cheesy, more umami. More salty | Nice strong salty, umami lingering body, better meat profile | very juicy and long lasting sweet, salivating | a stronger saltiness and to be more lingering, more umami | – | – | – | – | – | – | – | – | – | – | –
CCCCCCCCCCCCCCCCCC(=O)N1C(=O)CCC1C(=O)O (stereo not shown) [C18:0 pyro-Glu, 5-oxo-1-stearoylpyrrolidine-2-carboxylic acid] | – | – | – | – | more full, more cheesy, longer lasting, more salty | More umami lingering body, more salty, more rich | enhanced fruitiness, enhanced mouthfeel. Additionally, the off-notes of the high intensity sweetener were suppressed | more body and to be more umami, more salty, longer lasting and richer | more complex and had more mouthfeel | – | – | – | – | – | –
CCCCC/C=C\C/C=C\CCCCCCCC(=O)NC(CCC(=O)NCC)C(=O)O (stereo not shown) [C18:2-Theanine, 5-(ethylamino)-2-[(9Z,12Z)-octadeca-9,12-dienoylamino]-5-oxopentanoic acid] | – | More body and fatty notes, salivating | – | – | – | – | – | – | – | more fatty, more umami, more succulent | fatty skin-like, very juicy, authentic mango, more mouthfeel, long lasting mango taste | enhances sweet juicy orange notes,more body, more mouthfeel. Additionally, the off-notes of the high intensity sweetener were suppressed | better green tea character, was less bitter and had a better mouthfeel | more authentic tea than the reference and to have a nice balance between bitterness and astringency | more astringent, more body and somewhat more bitter umami than the reference
